Experimental findings from patent US20090181963A1, “3H-[1,2,3]TRIAZOLO[4,5-D]PYRIMIDINE COMPOUNDS, THEIR USE AS mTOR KINASE AND PI3 KINASE INHIBITORS, AND THEIR [sequence]” (Wyeth, priority 2008, published 2009) are described below.

One test deals with PI3 Kinase α (Homo sapiens, UniProt P42336). The test can be described thus: Fluorescence polarization assay for PI3K (PI3 Kinase α). It counts as biochemical. The following applies: diC8-PI(4,5)P2 substrate, 25 μM ATP, one hour at 25° C.
For a further test, the target named is PI3 Kinase γ (Homo sapiens, UniProt P48736). Description: Fluorescence polarization assay for PI3K (PI3 Kinase γ). It counts as biochemical. The following applies: diC8-PI(4,5)P2 substrate, 25 μM ATP, one hour at 25° C.
PI3 Kinase γ, sequence (P48736 whole entry): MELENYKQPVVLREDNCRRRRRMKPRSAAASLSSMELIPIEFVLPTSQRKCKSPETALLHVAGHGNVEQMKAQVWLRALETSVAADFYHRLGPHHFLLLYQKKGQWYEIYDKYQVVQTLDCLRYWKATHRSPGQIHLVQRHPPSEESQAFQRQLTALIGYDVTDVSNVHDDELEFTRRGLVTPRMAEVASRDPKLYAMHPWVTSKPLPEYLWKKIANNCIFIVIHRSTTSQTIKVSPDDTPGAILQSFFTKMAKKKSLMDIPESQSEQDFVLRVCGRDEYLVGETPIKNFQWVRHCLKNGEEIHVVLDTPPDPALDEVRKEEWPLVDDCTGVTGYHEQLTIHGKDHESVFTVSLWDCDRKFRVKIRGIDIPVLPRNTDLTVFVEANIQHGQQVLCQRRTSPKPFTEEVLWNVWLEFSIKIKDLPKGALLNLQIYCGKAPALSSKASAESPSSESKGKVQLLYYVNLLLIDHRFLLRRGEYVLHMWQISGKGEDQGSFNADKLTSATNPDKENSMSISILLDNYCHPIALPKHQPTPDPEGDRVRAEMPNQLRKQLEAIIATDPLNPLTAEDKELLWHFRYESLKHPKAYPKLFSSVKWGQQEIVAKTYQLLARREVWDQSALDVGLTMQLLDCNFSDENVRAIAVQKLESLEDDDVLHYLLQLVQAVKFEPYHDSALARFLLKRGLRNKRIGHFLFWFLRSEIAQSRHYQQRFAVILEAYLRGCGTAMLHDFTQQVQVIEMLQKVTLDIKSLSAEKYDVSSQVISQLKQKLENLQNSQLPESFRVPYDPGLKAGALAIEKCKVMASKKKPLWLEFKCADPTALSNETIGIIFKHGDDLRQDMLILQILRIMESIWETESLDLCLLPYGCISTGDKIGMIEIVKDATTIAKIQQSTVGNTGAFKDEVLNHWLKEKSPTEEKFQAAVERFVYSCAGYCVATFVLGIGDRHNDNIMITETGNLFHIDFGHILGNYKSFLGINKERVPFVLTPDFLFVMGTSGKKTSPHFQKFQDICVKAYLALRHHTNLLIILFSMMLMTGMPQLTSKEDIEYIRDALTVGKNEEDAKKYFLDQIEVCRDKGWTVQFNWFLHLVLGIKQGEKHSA

PI3 Kinase α, sequence (P42336 whole entry): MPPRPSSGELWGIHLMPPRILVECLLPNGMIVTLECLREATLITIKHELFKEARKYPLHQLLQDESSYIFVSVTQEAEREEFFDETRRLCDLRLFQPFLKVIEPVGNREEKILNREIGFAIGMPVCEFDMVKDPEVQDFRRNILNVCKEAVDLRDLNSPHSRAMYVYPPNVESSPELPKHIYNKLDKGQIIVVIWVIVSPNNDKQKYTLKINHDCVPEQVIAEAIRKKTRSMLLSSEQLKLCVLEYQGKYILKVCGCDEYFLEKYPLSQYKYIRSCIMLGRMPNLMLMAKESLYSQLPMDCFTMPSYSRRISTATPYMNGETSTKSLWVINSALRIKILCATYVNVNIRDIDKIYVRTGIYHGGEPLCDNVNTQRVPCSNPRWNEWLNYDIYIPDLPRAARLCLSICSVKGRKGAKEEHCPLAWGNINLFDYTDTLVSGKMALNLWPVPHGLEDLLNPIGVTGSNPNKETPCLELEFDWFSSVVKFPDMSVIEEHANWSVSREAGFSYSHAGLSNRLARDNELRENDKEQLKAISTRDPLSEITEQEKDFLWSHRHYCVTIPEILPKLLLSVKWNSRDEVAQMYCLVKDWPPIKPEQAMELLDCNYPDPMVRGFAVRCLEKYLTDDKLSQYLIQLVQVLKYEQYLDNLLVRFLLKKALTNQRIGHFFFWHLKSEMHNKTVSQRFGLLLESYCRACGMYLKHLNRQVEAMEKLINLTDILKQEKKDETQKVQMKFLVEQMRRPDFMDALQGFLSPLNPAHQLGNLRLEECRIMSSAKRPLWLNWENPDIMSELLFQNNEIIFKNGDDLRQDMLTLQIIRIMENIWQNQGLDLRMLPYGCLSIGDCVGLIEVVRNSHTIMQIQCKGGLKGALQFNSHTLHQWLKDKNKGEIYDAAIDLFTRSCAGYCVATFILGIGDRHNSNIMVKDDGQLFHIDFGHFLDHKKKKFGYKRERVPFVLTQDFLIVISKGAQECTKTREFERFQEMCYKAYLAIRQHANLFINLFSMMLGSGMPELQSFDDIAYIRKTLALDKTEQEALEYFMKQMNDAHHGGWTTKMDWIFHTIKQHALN
PI3 Kinase α, sequence (P27986 whole entry partner): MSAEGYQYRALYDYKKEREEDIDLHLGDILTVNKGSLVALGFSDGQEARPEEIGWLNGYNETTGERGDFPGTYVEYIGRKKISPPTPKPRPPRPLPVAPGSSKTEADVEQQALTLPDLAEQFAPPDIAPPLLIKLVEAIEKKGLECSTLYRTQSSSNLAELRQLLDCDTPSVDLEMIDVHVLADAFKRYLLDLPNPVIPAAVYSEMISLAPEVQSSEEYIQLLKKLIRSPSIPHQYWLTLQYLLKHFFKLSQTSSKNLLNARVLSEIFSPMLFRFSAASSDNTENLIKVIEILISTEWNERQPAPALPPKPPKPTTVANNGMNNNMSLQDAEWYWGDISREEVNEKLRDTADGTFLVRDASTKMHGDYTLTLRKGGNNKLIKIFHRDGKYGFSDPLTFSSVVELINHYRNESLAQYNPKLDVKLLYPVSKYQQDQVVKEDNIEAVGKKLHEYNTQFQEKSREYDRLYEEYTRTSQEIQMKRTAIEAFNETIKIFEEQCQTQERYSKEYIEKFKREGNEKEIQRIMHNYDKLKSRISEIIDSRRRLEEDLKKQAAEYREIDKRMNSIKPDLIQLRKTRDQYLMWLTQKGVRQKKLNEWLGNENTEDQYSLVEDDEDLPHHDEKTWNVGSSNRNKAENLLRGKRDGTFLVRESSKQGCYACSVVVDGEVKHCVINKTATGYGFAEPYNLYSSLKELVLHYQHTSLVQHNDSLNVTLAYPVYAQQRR
Experimental for PI3 Kinase γ: Nunc 384 well black polypropylene fluorescent plates were used for PI3K assays. Reactions were quenched by the addition of EDTA to a final concentration of 10 μM. Final reaction volumes were 10 ml. […] Reactions were allowed to proceed for one hour at 25° C. After I hour, GST-tagged GRP1 (general receptor for phosphoinositides) PH domain fusion protein was added to a final concentration of 100 nM, and BODIPY-TMRI(1,3,4,5)P4 (Echelon) was also added to a final concentration of 5 nM. Final sample volumes were 25 μl with a final DMSO concentration of 0.8%. Assay Plates were read on PerkinElmer Envision plate readers with appropriate filters for Tamra [BODIPY-TMRI(1,3,4,5)P4]. Data obtained were used to calculate enzymatic activity and enzyme inhibition by inhibitor compounds.

Consider `O=C(Nc1ccncc1)Nc1ccc(-c2nc(N3CCOCC3)c3nnn(CC(F)(F)F)c3n2)cc1` [Example 134, 1-{4-[7-morpholin-4-yl-3-(2,2,2-trifluoroethyl)-3H-[1,2,3]triazolo[4,5-d]pyrimidin-5-yl]phenyl}-3-pyridin-4-ylurea], for which the IC50 is 0.002 µM against PI3 Kinase α and 0.0255 µM against PI3 Kinase γ.

In the case of `Oc1cccc(-c2nc(N3CCOCC3)c3nnn(CCN4CCCCC4)c3n2)c1` [Example 195, 3-[7-Morpholin-4-yl-3-(2-piperidin-1-ylethyl)-3H-[1,2,3]triazolo[4,5-d]pyrimidin-5-yl]phenol], the IC50 at PI3 Kinase α came out at 0.689 µM; on PI3 Kinase γ it was 5.21 µM.

With `OCc1cccc(-c2nc(N3CCOCC3)c3nnn(C4CCN(Cc5ccccc5)CC4)c3n2)c1` [Example 177, {3-[3-(1-benzylpiperidin-4-yl)-7-morpholin-4-yl-3H-[1,2,3]triazolo[4,5-d]pyrimidin-5-yl]phenyl}methanol], the IC50 against PI3 Kinase α is 0.0835 µM; at PI3 Kinase γ, 0.435 µM.

On to `COC(=O)c1ccc(Cn2nnc3c(N4CCOCC4)nc(-c4cccc(O)c4)nc32)cc1` [Example 241, methyl 4-{[5-(3-hydroxyphenyl)-7-morpholin-4-yl-3H-[1,2,3]triazolo[4,5-d]pyrimidin-3-yl]methyl}benzoate], for which the IC50 against PI3 Kinase α was 0.63 µM; against PI3 Kinase γ it was 4.91 µM.

Consider `CCn1nnc2c(N3CCOCC3)nc(-c3ccc(NC(=O)Nc4ccc(C(=O)N(C)CCNC)cc4)cc3)nc21` [Example 52, 4-({[4-(3-ethyl-7-morpholin-4-yl-3H-[1,2,3]triazolo[4,5-d]pyrimidin-5-yl)phenyl]carbamoyl}amino)-N-methyl-N-[2-(methylamino)ethyl]benzamide], for which the IC50 at PI3 Kinase α was under 0.0019 µM; on PI3 Kinase γ, 0.0115 µM.

For `O=C(O)Cn1nnc2c(N3CCOCC3)nc(-c3cccc(O)c3)nc21` [Example 245, [5-(3-hydroxyphenyl)-7-morpholin-4-yl-3H-[1,2,3]triazolo[4,5-d]pyrimidin-3-yl]acetic acid], the IC50 against PI3 Kinase α turned out to be 0.298 µM; at PI3 Kinase γ, 1.94 µM.

Turning to `CC(C)n1nnc2c(N3CCOCC3)nc(-c3ccc(NC(=O)Nc4ccc(N(C)C)cc4)cc3)nc21` [Example 86, 1-(4-dimethylamino-phenyl)-3-[4-(3-isopropyl-7-morpholin-4-yl-3H-[1,2,3]triazolo[4,5-d]pyrimidin-5-yl)-phenyl]-urea], the IC50 against PI3 Kinase α was 0.0235 µM; on PI3 Kinase γ, 0.069 µM.

For “1-{4-[3-(2-hydroxyethyl)-7-morpholin-4-yl-3H-[1,2,3]triazolo[4,5-d]pyrimidin-5-yl]phenyl}-3-pyridin-4-ylurea [Example 183]”, the IC50 came to 0.0053 µM against PI3 Kinase α and 0.02 µM against PI3 Kinase γ.

Regarding `CC(C)n1nnc2c(N3CCOCC3)nc(-c3ccc(NC(N)=O)cc3)nc21` [Example 96, [4-(3-isopropyl-7-morpholin-4-yl-3H-[1,2,3]triazolo[4,5-d]pyrimidin-5-yl)-phenyl]-urea], the IC50 against PI3 Kinase α was determined as 0.0497 µM; against PI3 Kinase γ it was 0.62 µM.

For `CCn1nnc2c(N3CCOC[C@@H]3C)nc(-c3ccc(NC(=O)Nc4ccc(OC)cc4)cc3)nc21` [Example 73, (S)-1-(4-(3-ethyl-7-(3-methylmorpholino)-3H-[1,2,3]triazolo[4,5-d]pyrimidin-5-yl)phenyl)-3-(4-methoxyphenyl)urea], the results for the IC50 against PI3 Kinase α and against PI3 Kinase γ were 0.0155 µM and 0.0925 µM, respectively.

Consider `O=C(Cn1nnc2c(N3CCOCC3)nc(-c3cccc(CO)c3)nc21)Nc1ccc(F)cc1` [Example 238, N-(4-fluorophenyl)-2-{5-[3-(hydroxymethyl)phenyl]-7-morpholin-4-yl-3H-[1,2,3]triazolo[4,5-d]pyrimidin-3-yl}acetamide], for which the results for the IC50 on PI3 Kinase α and on PI3 Kinase γ were 0.245 µM and 2.07 µM, respectively.

With `Oc1cccc(-c2nc(N3CCOCC3)c3nnn(CCN4CCN(Cc5cccc(F)c5)CC4)c3n2)c1` [Example 109, 3-(3-{2-[4-(3-fluorobenzyl)piperazin-1-yl]ethyl}-7-morpholin-4-yl-3H-[1,2,3]triazolo[4,5-d]pyrimidin-5-yl)phenol], the results for the IC50 on PI3 Kinase α and at PI3 Kinase γ were 0.241 µM and 0.9 µM, respectively.

As for `CCn1nnc2c(N3CCOCC3)nc(-c3ccc(NC(=O)Nc4ccc(C(=O)N(C)C)cc4)cc3)nc21` [Example 61, 4-({[4-(3-ethyl-7-morpholin-4-yl-3H-[1,2,3]triazolo[4,5-d]pyrimidin-5-yl)phenyl]carbamoyl}amino)-N,N-dimethylbenzamide], the results for the IC50 against PI3 Kinase α and against PI3 Kinase γ were 0.0016 µM and 0.012 µM, respectively.

For `O=C(c1ccccc1)N1CCN(CCn2nnc3c(N4CCOCC4)nc(-c4cccc(O)c4)nc32)CC1` [Example 99, 3-{3-[2-(4-benzoylpiperazin-1-yl)ethyl]-7-morpholin-4-yl-3H-[1,2,3]triazolo[4,5-d]pyrimidin-5-yl}phenol], the results for the IC50 against PI3 Kinase α and on PI3 Kinase γ were 0.924 µM and 5.75 µM, respectively.

`CC(C)(C)OC(=O)N1CCC(n2nnc3c(N4CCOCC4)nc(-c4cccc(O)c4)nc32)CC1` [Example 143, tert-butyl 4-[5-(3-hydroxyphenyl)-7-morpholin-4-yl-3H-[1,2,3]triazolo[4,5-d]pyrimidin-3-yl]piperidine-1-carboxylate]: the IC50 amounted to 0.189 µM at PI3 Kinase α and 3.79 µM against PI3 Kinase γ.

In the case of `CCn1nnc2c(N3CCOCC3)nc(-c3ccc(NC(=O)Nc4ccnc(C)c4)cc3)nc21` [Example 35, 1-[4-(3-ethyl-7-morpholin-4-yl-3H-[1,2,3]triazolo[4,5-d]pyrimidin-5-yl)phenyl]-3-(2-methylpyridin-4-yl)urea], the figures for the IC50 against PI3 Kinase α and against PI3 Kinase γ were 0.008 µM and 0.037 µM, respectively.

As for `CC(C)n1nnc2c(N3CCOCC3)nc(-c3ccc(N)cc3)nc21` [Example 81, 4-(3-isopropyl-7-morpholin-4-yl-3H-[1,2,3]triazolo[4,5-d]pyrimidin-5-yl)-phenylamine], the IC50 turned out to be 1.03 µM on PI3 Kinase α and 4.63 µM at PI3 Kinase γ.

For `CN(C)CCCOc1ccc(CN2CCC(n3nnc4c(N5CCOCC5)nc(-c5cncc(O)c5)nc43)CC2)cc1` [Example 17, 5-[3-(1-{4-[3-(dimethylamino)propoxy]benzyl}piperidin-4-yl)-7-morpholin-4-yl-3H-[1,2,3]triazolo[4,5-d]pyrimidin-5-yl]pyridin-3-ol], the half-inhibitory concentration (IC50) at PI3 Kinase α stood at 0.217 µM; against PI3 Kinase γ it was 0.37 µM.

For the molecule `Nc1ccc(-c2nc(N3CCOCC3)c3nnn(C4CC4)c3n2)cc1` [Example 77, 4-(3-cyclopropyl-7-morpholino-3H-[1,2,3]triazolo[4,5-d]pyrimidin-5-yl)aniline], the IC50 is 1.84 µM on PI3 Kinase α and 8 µM at PI3 Kinase γ.

Regarding `CCn1nnc2c(N3CCOCC3)nc(-c3ccc(NC(=O)Nn4cnnc4)cc3)nc21` [Example 36, 1-[4-(3-ethyl-7-morpholin-4-yl-3H-[1,2,3]triazolo[4,5-d]pyrimidin-5-yl)phenyl]-3-(4H-1,2,4-triazol-4-yl)urea], the figures for the IC50 against PI3 Kinase α and at PI3 Kinase γ were 0.179 µM and 0.895 µM, respectively.

As to `CC(C)CN1CCN(CCn2nnc3c(N4CCOCC4)nc(-c4cccc(O)c4)nc32)CC1` [Example 108, 3-{3-[2-(4-isobutylpiperazin-1-yl)ethyl]-7-morpholin-4-yl-3H-[1,2,3]triazolo[4,5-d]pyrimidin-5-yl}phenol], the concentration for half-maximal inhibition (IC50) on PI3 Kinase α was 0.941 µM; against PI3 Kinase γ, 2.77 µM.

Regarding `Oc1cncc(-c2nc(N3CCOCC3)c3nnn(C4CCN(Cc5ccc(Br)nc5)CC4)c3n2)c1` [Example 15, 5-(3-{1-[(6-bromopyridin-3-yl)methyl]piperidin-4-yl}-7-morpholin-4-yl-3H-[1,2,3]triazolo[4,5-d]pyrimidin-5-yl)pyridin-3-ol], the IC50 against PI3 Kinase α is 0.016 µM; against PI3 Kinase γ it was 0.106 µM.

On to `CCN1CCCC1CNC(=O)c1ccc(NC(=O)Nc2ccc(-c3nc(N4CCOCC4)c4nnn(CC)c4n3)cc2)cc1` (stereo not shown) [Example 59, 4-({[4-(3-ethyl-7-morpholin-4-yl-3H-[1,2,3]triazolo[4,5-d]pyrimidin-5-yl)phenyl]carbamoyl}amino)-N-[(1-ethylpyrrolidin-2-yl)methyl]benzamide], for which the 50% inhibitory concentration (IC50) at PI3 Kinase α was 0.0025 µM; on PI3 Kinase γ it was 0.026 µM.

Regarding `CCn1nnc2c(N3CCOCC3)nc(-c3ccc(NC(=O)Nc4ccc(C(=O)OC)cc4)cc3)nc21` [Example 41, methyl 4-({[4-(3-ethyl-7-morpholin-4-yl-3H-[1,2,3]triazolo[4,5-d]pyrimidin-5-yl)phenyl]carbamoyl}amino)benzoate], the IC50 on PI3 Kinase α is 0.0233 µM; against PI3 Kinase γ, 0.0845 µM.

For the molecule `CC(C)n1nnc2c(N3CCOCC3)nc(-c3ccc(NC(=O)Nc4cccnc4)cc3)nc21` [Example 83, 1-[4-(3-isopropyl-7-morpholin-4-yl-3H-[1,2,3]triazolo[4,5-d]pyrimidin-5-yl)-phenyl]-3-pyridin-3-yl-urea], the half-maximal inhibitory concentration (IC50) against PI3 Kinase α is 0.0105 µM; on PI3 Kinase γ it was 0.0485 µM.

For the molecule `CCn1nnc2c(N3CCOCC3)nc(-c3ccc(NC(=O)Nc4ccc(C(=O)N5CCNC(C)(C)C5)cc4)cc3)nc21` [Example 57, 1-{4-[(3,3-dimethylpiperazin-1-yl)carbonyl]phenyl}-3-[4-(3-ethyl-7-morpholin-4-yl-3H-[1,2,3]triazolo[4,5-d]pyrimidin-5-yl)phenyl]urea], the figures for the IC50 on PI3 Kinase α and on PI3 Kinase γ were under 0.0017 µM and 0.007 µM, respectively.

As for `O=C(Nc1ccccc1)Nc1ccc(-c2nc(N3CCOCC3)c3nnn(-c4cccc(C(=O)O)c4)c3n2)cc1` [Example 123, 3-(7-morpholin-4-yl-5-{4-[(phenylcarbamoyl)amino]phenyl}-3H-[1,2,3]triazolo[4,5-d]pyrimidin-3-yl)benzoic acid], the IC50 against PI3 Kinase α turned out to be 0.004 µM; against PI3 Kinase γ, 0.0085 µM.

Regarding “3-{3-[4-(4-Benzylpiperazin-1-yl)butyl]-7-morpholin-4-yl-3H-[1,2,3]triazolo[4,5-d]pyrimidin-5-yl}phenol [Example 206]”, the IC50 against PI3 Kinase α turned out to be 0.116 µM; against PI3 Kinase γ it was 0.216 µM.

As for `Oc1cncc(-c2nc(N3CCOCC3)c3nnn(C4CCN(Cc5ccccc5)CC4)c3n2)c1` [Example 3, 5-[3-(1-benzylpiperidin-4-yl)-7-morpholin-4-yl-3H-[1,2,3]triazolo[4,5-d]pyrimidin-5-yl]pyridin-3-ol], the IC50 stood at 0.069 µM against PI3 Kinase α and 0.133 µM on PI3 Kinase γ.
